Patent US4452778A, “Synergistic antibacterial compositions and method of treatment of infections caused by multiple antibiotic-resistant organisms” (Eli Lilly and Company, priority 1981, dated 1984)
Like-named read-outs stand apart in the source and are kept apart here.

Assays:
Serratia marcescens = experiment: Checkerboard broth dilution synergy study (mic); format: cell-based; settings: Table II; for MIC: Serratia marcescens, read-out: mic, drug alone
E. cloacae = experiment: Checkerboard broth dilution synergy study (mic); format: cell-based; settings: Table II; for MIC: Enterobacter cloacae, read-out: mic, drug alone
Proteus rettgeri = experiment: Checkerboard broth dilution synergy study (mic); format: cell-based; settings: Providencia rettgeri, Table II, strain 65; read-out: mic, drug alone
Proteus vulgaris = experiment: Checkerboard broth dilution synergy study (mic); format: cell-based; settings: Proteus vulgaris, Table II, read-out: mic, drug alone
E. coli = experiment: Checkerboard broth dilution synergy study (mic); format: cell-based; settings: Table II; for MIC: Escherichia coli, read-out: mic, drug alone
Klebsiella pneumoniae = experiment: Checkerboard broth dilution synergy study (mic); format: cell-based; settings: Table II; for MIC: Klebsiella pneumoniae, read-out: mic, drug alone
Proteus mirabilis = experiment: Checkerboard broth dilution synergy study (mic); format: cell-based; settings: Proteus mirabilis; Table II, strain Allen; read-out: mic, drug alone
[1] = cited from earlier work; for mean serum concentration: end of injection
Pseudomonas aeruginosa = experiment: Checkerboard broth dilution synergy study (mic); format: cell-based; settings: Table II; for MIC: Pseudomonas aeruginosa, read-out: mic, drug alone

## CCN1CCN(C(=O)N[C@@H](C(=O)N[C@@H]2C(=O)N3[C@@H]2SC(C)(C)[C@@H]3C(=O)O)c2ccccc2)C(=O)C1=O [piperacillin, sodium 6-(D(-)-α-(4-ethyl-2,3-dioxo-1-piperazinylcarbonylamino)-α-phenylacetamido]penicillinate]
Serratia marcescens; strain 100
  MIC: > 64 µg/mL
  mic of each drug in combination I + P: 32 µg/mL
Serratia marcescens; strain 302-2
  MIC: > 64 µg/mL
  mic of each drug in combination I + P: 8 µg/mL
Serratia marcescens; strain 796
  MIC: > 64 µg/mL
  mic of each drug in combination I + P: 4 µg/mL
Serratia marcescens; strain 14142
  MIC: > 64 µg/mL
  mic of each drug in combination I + P: 8 µg/mL
Serratia marcescens; strain Townsend
  MIC: > 64 µg/mL
  mic of each drug in combination I + P: 64 µg/mL
E. cloacae; strain 1246
  MIC: > 64 µg/mL
E. cloacae; strain 1253
  MIC: > 64 µg/mL
  mic of each drug in combination I + P: 32 µg/mL
E. cloacae; strain 1415
  MIC: > 64 µg/mL
E. cloacae; strain B293
  MIC: > 64 µg/mL
  mic of each drug in combination I + P: 16 µg/mL
Proteus rettgeri
  MIC: 64 µg/mL
Proteus vulgaris; strain 363
  MIC: > 64 µg/mL
Proteus vulgaris; strain Shide
  MIC: > 64 µg/mL
E. coli; strain 46-2
  MIC: > 64 µg/mL
  mic of each drug in combination I + P: 2 µg/mL
E. coli; strain 77-3
  MIC: > 64 µg/mL
E. coli; strain 136-3
  MIC: > 64 µg/mL
E. coli; strain 1260
  MIC: > 64 µg/mL
E. coli; strain 1262
  MIC: > 64 µg/mL
  mic of each drug in combination I + P: 64 µg/mL
E. coli; strain Briley
  MIC: > 64 µg/mL
  mic of each drug in combination I + P: 32 µg/mL
E. coli; strain Dill
  MIC: 32 µg/mL
E. coli; strain 1253
  mic of each drug in combination I + P: 4 µg/mL
E. coli; strain 1415
  mic of each drug in combination I + P: 2 µg/mL
Klebsiella pneumoniae; strain 130
  MIC: > 64 µg/mL
Klebsiella pneumoniae; strain 214-1
  MIC: > 64 µg/mL
  mic of each drug in combination I + P: 8 µg/mL
Klebsiella pneumoniae; strain 463
  MIC: > 64 µg/mL
  mic of each drug in combination I + P: 16 µg/mL
Klebsiella pneumoniae; strain 512
  MIC: > 64 µg/mL
  mic of each drug in combination I + P: 32 µg/mL
Klebsiella pneumoniae; strain 933
  MIC: > 64 µg/mL
Klebsiella pneumoniae; strain 1204-2
  MIC: > 64 µg/mL
  mic of each drug in combination I + P: 2 µg/mL
Proteus mirabilis
  MIC: > 64 µg/mL
[1]; single intramuscular dose 0.5 g
  mean peak serum concentration: 4.9 µg/mL
[1]; single intramuscular dose 1.0 g
  mean peak serum concentration: 13.3 µg/mL
[1]; single intramuscular dose 2.0 g
  mean peak serum concentration: 30.2 µg/mL
[1]; single intravenous bolus 1.0 g
  mean serum concentration: 70.7 µg/mL
[1]; single intravenous bolus 2.0 g
  mean serum concentration: 199.5 µg/mL
[1]; single intravenous bolus 4.0 g
  mean serum concentration: 330.7 µg/mL
[1]; single intravenous bolus 6.0 g
  mean serum concentration: 451.8 µg/mL
Pseudomonas aeruginosa; strain 84
  MIC: 64 µg/mL
  mic of each drug in combination I + P: 4 µg/mL
Pseudomonas aeruginosa; strain 366
  MIC: > 128 µg/mL
  mic of each drug in combination I + P: 16 µg/mL
Pseudomonas aeruginosa; strain 424
  MIC: > 128 µg/mL
  mic of each drug in combination I + P: 0.5 µg/mL
Pseudomonas aeruginosa; strain 447
  MIC: > 128 µg/mL
  mic of each drug in combination I + P: 0.5 µg/mL
Pseudomonas aeruginosa; strain 1484
  MIC: 64 µg/mL
  mic of each drug in combination I + P: 8 µg/mL
Pseudomonas aeruginosa; strain Davis
  MIC: > 64 µg/mL
  mic of each drug in combination I + P: 16 µg/mL
